According to ChEMBL document CHEMBL1137190, “Synthesis and KCNQ2 opener activity of N-(1-benzo[1,3]dioxol-5-yl-ethyl, N-[1-(2,3-dihydro-benzofuran-5-yl)-ethyl, and N-[1-(2,3-dihydro-1H-indol-5-yl)-ethyl acrylamides” (Bioorg Med Chem Lett, 2004):

Tested on: HEK293
Assay: Effective concentration against whole-cell patch clamp from […] HEK293 cells
Assay type: functional, cell-based, Homo sapiens
Details: Homo sapiens, HEK293

Row | Structure (SMILES) | EC50 [µM]
1 | C[C@H](NC(=O)/C=C/c1ccccc1F)c1ccc2c(c1)N(CC1CC1)CCO2 | 0.06
2 | C[C@H](NC(=O)/C=C/c1c(F)cccc1F)c1ccc2c(c1)CCO2 | 0.33
3 | C[C@H](NC(=O)/C=C/c1ccccc1)c1cccc(N2CCOCC2)c1 | 3.2
4 | C[C@H](NC(=O)/C=C/c1ccccc1F)c1ccc2c(c1)CCN2 | 0.43
5 | CCOC(=O)Nc1ccc(NCc2ccc(F)cc2)cc1N [EZOGABINE] | 1.3

Same assay, conditions: hek293

Row | Structure (SMILES) | EC50 [µM]
6 | C[C@H](NC(=O)/C=C/c1ccccc1Cl)c1ccc2c(c1)OCO2 | 0.02
7 | C[C@H](NC(=O)/C=C/c1ccccc1Cl)c1ccc2c(c1)OCO2 (racemic) | 0.07
